Assay results as given in ChEMBL document CHEMBL1155437, “Anti-infective discorhabdins from a deep-water alaskan sponge of the genus Latrunculia” (J Nat Prod, 2010).
Converted amounts (≈) assume the structure as drawn. The source made the active and inactive calls. No cut-off for these calls is given here.

What was measured:
[1] = test system: Staphylococcus aureus; experiment: Antibacterial activity against methicillin-resistant Staphylococcus aureus by modified NCCLS method; type: functional, organism-based
[2] = test system: Mycobacterium tuberculosis; experiment: Antituberculosis activity against Mycobacterium tuberculosis H37Rv after 4 days by alamar blue assay; type: functional, organism-based; conditions: 96 h
[3] = test system: Hepatitis C virus; experiment: Antiviral activity against HCV infected in human HuH7 clone B cells assessed as inhibition of viral RNA replication after 5 days by RT-PCR based replicon assay relative to control; type: functional, Hepacivirus hominis; conditions: Huh-7, 120 h
[4] = test system: Mycobacterium intracellulare; experiment: Antibacterial activity against Mycobacterium intracellular by after 4 days alamar blue assay; type: functional, organism-based
[5] = Selectivity index, ratio of IC50 for african green monkey (Cercopithecus aethiops) Vero cells to IC50 for chloroquine-sensitive Plasmodium falciparum D6; type: toxicity, cell-based; conditions: read-out: Ratio IC50
[6] = test system: Plasmodium falciparum; experiment: Antimalarial activity against chloroquine-sensitive Plasmodium falciparum D6 assessed as parasite LDH activity after 72 hrs by malstat reagent method; type: functional, organism-based; conditions: D6, 72 h
[7] = Cytotoxicity against human HuH7 cells at 10 uM after 5 days by RT-PCR; type: cell-based; conditions: huh-7, 120 h
[8] = test system: Plasmodium falciparum; experiment: Antimalarial activity against chloroquine-resistant Plasmodium falciparum W2 assessed as parasite LDH activity after 72 hrs by malstat reagent method; type: functional, organism-based; conditions: W2, 72 h
[9] = Selectivity index, ratio of IC50 for african green monkey (Cercopithecus aethiops) Vero cells to IC50 for chloroquine-resistant Plasmodium falciparum W2; type: toxicity, cell-based; conditions: read-out: Ratio IC50
[10] = test system: Vero; experiment: Cytotoxicity against african green monkey Vero cells by neutral red assay; type: cell-based; conditions: Chlorocebus sabaeus
[11] = test system: Mus musculus; experiment: Toxicity in Plasmodium berghei infected mice (Mus musculus) assessed as loss of weight at 10 mg/kg, perorally or subcutaneously QD on day 1; type: organism-based; parameters: dose 10 mg/kg, route oral; conditions: in vivo, po
[12] = test system: Mus musculus; experiment: Toxicity in Plasmodium berghei infected mice (Mus musculus) at 10 mg/kg, perorally or subcutaneously administered 2 hrs post infection; type: organism-based; parameters: dose 10 mg/kg, route oral; conditions: in vivo, po
[13] = test system: Mus musculus; experiment: Toxicity in Plasmodium berghei infected mice (Mus musculus) assessed as mortality at 10 mg/kg, perorally or subcutaneously QD for 2 days measured on day 3; type: organism-based; parameters: dose 10 mg/kg, route oral; conditions: in vivo, po, 48 h
[14] = test system: Mus musculus; experiment: Toxicity in Plasmodium berghei infected mice (Mus musculus) assessed as mortality at 10 mg/kg, perorally or subcutaneously QD for 2 days measured on day 4; type: organism-based; parameters: dose 10 mg/kg, route oral; conditions: in vivo, po, 48 h
[15] = test system: Mus musculus; experiment: Toxicity in Plasmodium berghei infected mice (Mus musculus) assessed as dehydration at 10 mg/kg, perorally or subcutaneously QD on day 1; type: organism-based; parameters: dose 10 mg/kg, route oral; conditions: in vivo, po
[16] = test system: Mus musculus; experiment: Toxicity in Plasmodium berghei infected mice (Mus musculus) assessed as reduction of movements at 10 mg/kg, perorally or subcutaneously QD on day 1; type: organism-based; parameters: dose 10 mg/kg, route oral; conditions: in vivo, po
[17] = test system: Mus musculus; experiment: Toxicity in Plasmodium berghei infected mice (Mus musculus) at 10 mg/kg, perorally or subcutaneously QD for 2 days measured on day 5; type: organism-based; parameters: dose 10 mg/kg, route oral; conditions: in vivo, po, 48 h
[18] = test system: Mus musculus; experiment: Toxicity in Plasmodium berghei infected mice (Mus musculus) assessed as loss of weight at 10 mg/kg, perorally or subcutaneously QD for 2 days measured on day 5; type: organism-based; parameters: dose 10 mg/kg, route oral; conditions: in vivo, po, 48 h
[19] = test system: Mus musculus; experiment: Toxicity in Plasmodium berghei infected mice (Mus musculus) at 10 mg/kg, perorally or subcutaneously QD for 2 days measured on day 2; type: organism-based; parameters: dose 10 mg/kg, route oral; conditions: in vivo, po, 48 h
[20] = test system: Plasmodium berghei; experiment: Antimalarial activity against Plasmodium berghei infected in mice (Mus musculus) assessed as parasitaemia at 10 mg/kg, perorally or subcutaneously administered 2 hrs post infection daily for 2 days measured on day 5 by microscopy; type: functional; conditions: route oral
[21] = Mycobacterium intracellulare, 96 h
[22] = Mycobacterium intracellulare, 96 h, read-out: IC50

SMILES | IC50 [1] [µM] | MIC [1] [µM] | MIC [2] [µM] | EC90 [3] [µM] | MIC [4, 21] [µM] | IC50 [4, 22] [µM] | selectivity ratio [5] | IC50 [6] [µM] | Activity [7] | IC50 [8] [µM] | selectivity ratio [9] | IC50 [10] [µM] | Activity [12] | further results
O=C1C(Br)=CC2(C=C1Br)CCNC1=C2C2=NCCc3c[nH]c(c32)C1=O [DISCORHABDIN C] | 3.2 | 11 (≈ 5.09 µg/mL) | 8 (≈ 3.71 µg/mL) | < 10 | 0.17 (≈ 0.0787 µg/mL) | 0.13 | 1 | 2.8 | Active | 2 | 1.4 | 2.8 |  | IC50 [2]: 6.8 µM
O=C1C2=C(C3=NCCc4c[nH]c1c43)C1(C=C(Br)C(O)C(Br)=C1)CCN2 (configuration not stated) [DIHYDRODISCORHABDIN C] | 13 |  | 14 (≈ 6.51 µg/mL) | < 10 |  |  | 58 | 0.17 | Active | 0.13 | 75 | 9.8 | Non-toxic | Activity [11]: Toxic; IC50 [4]: Not Active; MIC [4]: inactive; Activity [13]: Toxic; Activity [14]: Toxic; Activity [15]: Toxic; Activity [16]: Toxic
O=C(O)c1cn(C2CC2)c2cc(N3CCNCC3)c(F)cc2c1=O [CIPROFLOXACIN] | 1.1 | 3 (≈ 0.994 µg/mL) |  |  | 1.5 (≈ 0.497 µg/mL) |  |  |  |  |  |  |  |  | 
CO[C@H]1/C=C/O[C@@]2(C)Oc3c(C)c(O)c4c(O)c(c(/C=N/N5CCN(C)CC5)c(O)c4c3C2=O)NC(=O)/C(C)=C\C=C\[C@H](C)[C@H](O)[C@@H](C)[C@@H](O)[C@@H](C)[C@H](OC(C)=O)[C@@H]1C [RIFAMPIN] |  |  | 0.21 (≈ 0.173 µg/mL) |  |  |  |  |  |  |  |  |  |  | 
NNC(=O)c1ccncc1 [ISONIAZID] |  |  | 3.2 (≈ 0.439 µg/mL) |  |  |  |  |  |  |  |  |  |  | 
O=C1C[C@H]2S[C@H]3C[C@]2(C=C1Br)C1=C(N3)C(=O)c2[nH]cc3c2C1=NCC3 [DISCORHABDINE A] | 4.8 | 12 (≈ 5 µg/mL) | 7.7 (≈ 3.21 µg/mL) | < 10 | 0.74 (≈ 0.308 µg/mL) | 0.36 | 130 | 0.053 | Active | 0.053 | 130 | 6.8 | Non-toxic | Activity [17]: Toxic; Activity [18]: > 25%; Activity [19]: Toxic; Activity [20]: 6.6%
